Measured values as given in ChEMBL document CHEMBL4507311, “Data for DCP probe A-1155463” (2021).

Assays:
[1] = molecular target: Rhodopsin kinase GRK7 (Homo sapiens) (UniProt Q8WTQ7); conditions: Compound concentration 1000.0 nM
[2] = molecular target: SRSF protein kinase 2 (Homo sapiens) (UniProt P78362); conditions: Compound concentration 1000.0 nM
[3] = molecular target: cGMP-dependent protein kinase 2 (Homo sapiens) (UniProt Q13237); conditions: Compound concentration 1000.0 nM
[4] = molecular target: Serine/threonine-protein kinase tousled-like 2 (Homo sapiens) (UniProt Q86UE8); conditions: Compound concentration 1000.0 nM
[5] = molecular target: Serine/threonine-protein kinase TNNI3K (Homo sapiens) (UniProt Q59H18); conditions: Compound concentration 1000.0 nM
[6] = molecular target: Mitogen-activated protein kinase kinase kinase kinase 3 (Homo sapiens) (UniProt Q8IVH8); conditions: Compound concentration 1000.0 nM
[7] = molecular target: Serine/threonine-protein kinase haspin (Homo sapiens) (UniProt Q8TF76); conditions: Compound concentration 1000.0 nM
[8] = test system: Mast/stem cell growth factor receptor Kit (Homo sapiens), P10721 [V559D,T670I]; conditions: Compound concentration 1000.0 nM
[9] = molecular target: Non-receptor tyrosine-protein kinase TYK2 (Homo sapiens) (UniProt P29597); conditions: Compound concentration 1000.0 nM
[10] = molecular target: Cyclin-dependent kinase 5 (Homo sapiens) (UniProt Q00535); conditions: Compound concentration 1000.0 nM
[11] = molecular target: Protein kinase C iota type (Homo sapiens) (UniProt P41743); conditions: Compound concentration 1000.0 nM
[12] = molecular target: Dual specificity mitogen-activated protein kinase kinase 6 (Homo sapiens) (UniProt P52564); conditions: Compound concentration 1000.0 nM
[13] = molecular target: RAC-alpha serine/threonine-protein kinase (Homo sapiens) (UniProt P31749); conditions: Compound concentration 1000.0 nM
[14] = molecular target: Histamine H4 receptor (Homo sapiens) (UniProt Q9H3N8); conditions: Compound concentration 10.0 uM
[15] = molecular target: Serine/threonine-protein kinase D3 (Homo sapiens) (UniProt O94806); conditions: Compound concentration 1000.0 nM
[16] = molecular target: Mitogen-activated protein kinase kinase kinase kinase 5 (Homo sapiens) (UniProt Q9Y4K4); conditions: Compound concentration 1000.0 nM
[17] = molecular target: Beta-3 adrenergic receptor (Homo sapiens) (UniProt P13945); conditions: Compound concentration 10.0 uM
[18] = molecular target: Serine/threonine-protein kinase 24 (Homo sapiens) (UniProt Q9Y6E0); conditions: Compound concentration 1000.0 nM
[19] = molecular target: Serine/threonine-protein kinase Nek10 (Homo sapiens) (UniProt Q6ZWH5); conditions: Compound concentration 1000.0 nM
[20] = molecular target: Tyrosine-protein kinase Fer (Homo sapiens) (UniProt P16591); conditions: Compound concentration 1000.0 nM
[21] = molecular target: Casein kinase I isoform alpha-like (Homo sapiens) (UniProt Q8N752); conditions: Compound concentration 1000.0 nM
[22] = molecular target: Serine/threonine-protein kinase LATS2 (Homo sapiens) (UniProt Q9NRM7); conditions: Compound concentration 1000.0 nM
[23] = molecular target: Cyclin-dependent kinase 11B (Homo sapiens) (UniProt P21127); conditions: Compound concentration 1000.0 nM
[24] = molecular target: Serine/threonine-protein kinase OSR1 (Homo sapiens) (UniProt O95747); conditions: Compound concentration 1000.0 nM
[25] = test system: Epidermal growth factor receptor (Homo sapiens), P00533 [UNDEFINED MUTATION]; conditions: Compound concentration 1000.0 nM
[26] = molecular target: Serine/threonine-protein kinase 33 (Homo sapiens) (UniProt Q9BYT3); conditions: Compound concentration 1000.0 nM
[27] = molecular target: RAC-beta serine/threonine-protein kinase (Homo sapiens) (UniProt P31751); conditions: Compound concentration 1000.0 nM
[28] = molecular target: Mitogen-activated protein kinase 14 (Homo sapiens) (UniProt Q16539); conditions: Compound concentration 1000.0 nM
[29] = molecular target: Serine/threonine-protein kinase ULK3 (Homo sapiens) (UniProt Q6PHR2); conditions: Compound concentration 1000.0 nM
[30] = molecular target: Serine/threonine-protein kinase PAK 4 (Homo sapiens) (UniProt O96013); conditions: Compound concentration 1000.0 nM
[31] = molecular target: Serine/threonine-protein kinase Nek9 (Homo sapiens) (UniProt Q8TD19); conditions: Compound concentration 1000.0 nM
[32] = molecular target: Ephrin type-A receptor 8 (Homo sapiens) (UniProt P29322); conditions: Compound concentration 1000.0 nM
[33] = molecular target: Serine/threonine-protein kinase TBK1 (Homo sapiens) (UniProt Q9UHD2); conditions: Compound concentration 1000.0 nM
[34] = molecular target: Cyclin-dependent kinase-like 1 (Homo sapiens) (UniProt Q00532); conditions: Compound concentration 1000.0 nM
[35] = molecular target: Dual specificity mitogen-activated protein kinase kinase 7 (Homo sapiens) (UniProt O14733); conditions: Compound concentration 1000.0 nM
[36] = molecular target: STE20/SPS1-related proline-alanine-rich protein kinase (Homo sapiens) (UniProt Q9UEW8); conditions: Compound concentration 1000.0 nM
[37] = molecular target: AP2-associated protein kinase 1 (Homo sapiens) (UniProt Q2M2I8); conditions: Compound concentration 1000.0 nM
[38] = molecular target: Serine/threonine-protein kinase 32B (Homo sapiens) (UniProt Q9NY57); conditions: Compound concentration 1000.0 nM
[39] = molecular target: BMP-2-inducible protein kinase (Homo sapiens) (UniProt Q9NSY1); conditions: Compound concentration 1000.0 nM
[40] = molecular target: 1-phosphatidylinositol 3-phosphate 5-kinase (Homo sapiens) (UniProt Q9Y2I7); conditions: Compound concentration 1000.0 nM
[41] = test system: Serine/threonine-protein kinase B-raf (Homo sapiens), P15056 [V600E]; conditions: Compound concentration 1000.0 nM
Serine/threonine-protein kinase B-raf (Homo sapiens), P15056 [V600E], sequence (P15056 whole entry V600E): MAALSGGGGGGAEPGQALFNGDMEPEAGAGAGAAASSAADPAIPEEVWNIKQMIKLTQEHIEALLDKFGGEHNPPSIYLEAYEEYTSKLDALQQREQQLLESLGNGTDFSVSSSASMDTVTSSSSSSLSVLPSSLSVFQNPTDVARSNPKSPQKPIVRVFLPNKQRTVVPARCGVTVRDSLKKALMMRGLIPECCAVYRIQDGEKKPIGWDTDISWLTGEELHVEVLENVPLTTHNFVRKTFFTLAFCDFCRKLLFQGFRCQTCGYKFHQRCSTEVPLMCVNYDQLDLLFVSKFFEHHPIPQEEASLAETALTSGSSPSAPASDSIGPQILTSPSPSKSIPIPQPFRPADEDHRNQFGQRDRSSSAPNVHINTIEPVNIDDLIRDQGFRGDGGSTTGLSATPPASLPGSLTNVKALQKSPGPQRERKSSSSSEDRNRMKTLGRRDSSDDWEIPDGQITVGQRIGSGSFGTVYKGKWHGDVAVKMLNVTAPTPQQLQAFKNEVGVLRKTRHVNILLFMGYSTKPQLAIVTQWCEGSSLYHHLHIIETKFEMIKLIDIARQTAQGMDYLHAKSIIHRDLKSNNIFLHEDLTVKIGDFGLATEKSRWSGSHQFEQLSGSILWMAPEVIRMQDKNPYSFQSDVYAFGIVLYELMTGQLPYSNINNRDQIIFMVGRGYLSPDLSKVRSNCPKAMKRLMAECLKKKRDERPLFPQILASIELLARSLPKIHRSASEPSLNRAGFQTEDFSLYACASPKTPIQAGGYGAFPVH

SRSF protein kinase 2 (Homo sapiens), sequence (P78362 whole entry, looked up): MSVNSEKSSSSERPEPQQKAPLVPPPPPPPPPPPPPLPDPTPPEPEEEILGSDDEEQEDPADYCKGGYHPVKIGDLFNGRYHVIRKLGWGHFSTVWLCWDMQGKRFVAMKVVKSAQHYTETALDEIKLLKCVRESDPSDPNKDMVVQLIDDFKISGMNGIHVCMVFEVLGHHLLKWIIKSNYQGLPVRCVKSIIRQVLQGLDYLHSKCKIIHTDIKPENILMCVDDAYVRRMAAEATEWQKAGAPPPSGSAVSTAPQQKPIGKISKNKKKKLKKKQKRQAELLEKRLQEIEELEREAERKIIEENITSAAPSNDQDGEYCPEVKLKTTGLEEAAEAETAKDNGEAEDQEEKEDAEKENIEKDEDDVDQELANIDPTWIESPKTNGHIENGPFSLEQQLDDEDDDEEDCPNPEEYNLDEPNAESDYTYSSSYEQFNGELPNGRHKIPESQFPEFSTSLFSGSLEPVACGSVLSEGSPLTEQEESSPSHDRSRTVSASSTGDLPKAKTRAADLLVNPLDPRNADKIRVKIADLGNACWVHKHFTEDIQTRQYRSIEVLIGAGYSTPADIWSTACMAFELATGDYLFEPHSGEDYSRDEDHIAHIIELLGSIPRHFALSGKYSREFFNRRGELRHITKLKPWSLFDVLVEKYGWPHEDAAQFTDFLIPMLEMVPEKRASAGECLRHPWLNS
Mitogen-activated protein kinase 14 (Homo sapiens), sequence (Q16539 whole entry): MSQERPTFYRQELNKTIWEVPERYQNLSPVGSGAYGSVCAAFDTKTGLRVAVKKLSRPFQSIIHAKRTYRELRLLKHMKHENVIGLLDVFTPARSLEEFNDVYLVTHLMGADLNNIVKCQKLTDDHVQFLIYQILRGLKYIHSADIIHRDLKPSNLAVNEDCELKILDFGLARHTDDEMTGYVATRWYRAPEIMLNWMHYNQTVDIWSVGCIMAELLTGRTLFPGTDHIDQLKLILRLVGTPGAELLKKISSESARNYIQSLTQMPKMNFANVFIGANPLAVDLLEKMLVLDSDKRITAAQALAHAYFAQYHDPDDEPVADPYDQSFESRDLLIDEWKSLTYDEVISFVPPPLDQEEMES
Beta-3 adrenergic receptor (Homo sapiens), sequence (P13945 whole entry, looked up): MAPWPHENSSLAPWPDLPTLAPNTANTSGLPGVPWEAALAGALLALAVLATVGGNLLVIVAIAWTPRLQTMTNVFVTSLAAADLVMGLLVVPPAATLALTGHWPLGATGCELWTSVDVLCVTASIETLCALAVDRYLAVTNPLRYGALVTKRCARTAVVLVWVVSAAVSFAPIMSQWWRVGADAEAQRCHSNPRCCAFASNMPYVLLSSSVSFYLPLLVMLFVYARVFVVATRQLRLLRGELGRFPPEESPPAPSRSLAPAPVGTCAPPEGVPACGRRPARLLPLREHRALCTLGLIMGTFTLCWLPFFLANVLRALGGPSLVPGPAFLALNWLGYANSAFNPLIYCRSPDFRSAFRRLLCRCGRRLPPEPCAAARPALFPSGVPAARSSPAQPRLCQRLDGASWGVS
RAC-beta serine/threonine-protein kinase (Homo sapiens), sequence (P31751 whole entry): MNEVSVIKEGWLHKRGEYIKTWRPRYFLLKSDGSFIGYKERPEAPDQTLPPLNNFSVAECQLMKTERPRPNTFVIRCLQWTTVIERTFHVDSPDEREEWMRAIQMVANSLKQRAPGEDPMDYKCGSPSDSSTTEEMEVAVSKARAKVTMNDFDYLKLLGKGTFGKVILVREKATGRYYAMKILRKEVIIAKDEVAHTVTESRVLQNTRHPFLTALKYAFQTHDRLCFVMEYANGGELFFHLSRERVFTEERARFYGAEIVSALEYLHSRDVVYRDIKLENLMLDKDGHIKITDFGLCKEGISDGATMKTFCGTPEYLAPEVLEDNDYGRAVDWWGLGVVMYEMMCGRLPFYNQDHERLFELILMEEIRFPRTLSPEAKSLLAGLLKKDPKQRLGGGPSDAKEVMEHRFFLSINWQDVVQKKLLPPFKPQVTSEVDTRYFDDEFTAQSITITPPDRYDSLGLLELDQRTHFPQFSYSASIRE
Serine/threonine-protein kinase D3 (Homo sapiens), sequence (O94806 whole entry): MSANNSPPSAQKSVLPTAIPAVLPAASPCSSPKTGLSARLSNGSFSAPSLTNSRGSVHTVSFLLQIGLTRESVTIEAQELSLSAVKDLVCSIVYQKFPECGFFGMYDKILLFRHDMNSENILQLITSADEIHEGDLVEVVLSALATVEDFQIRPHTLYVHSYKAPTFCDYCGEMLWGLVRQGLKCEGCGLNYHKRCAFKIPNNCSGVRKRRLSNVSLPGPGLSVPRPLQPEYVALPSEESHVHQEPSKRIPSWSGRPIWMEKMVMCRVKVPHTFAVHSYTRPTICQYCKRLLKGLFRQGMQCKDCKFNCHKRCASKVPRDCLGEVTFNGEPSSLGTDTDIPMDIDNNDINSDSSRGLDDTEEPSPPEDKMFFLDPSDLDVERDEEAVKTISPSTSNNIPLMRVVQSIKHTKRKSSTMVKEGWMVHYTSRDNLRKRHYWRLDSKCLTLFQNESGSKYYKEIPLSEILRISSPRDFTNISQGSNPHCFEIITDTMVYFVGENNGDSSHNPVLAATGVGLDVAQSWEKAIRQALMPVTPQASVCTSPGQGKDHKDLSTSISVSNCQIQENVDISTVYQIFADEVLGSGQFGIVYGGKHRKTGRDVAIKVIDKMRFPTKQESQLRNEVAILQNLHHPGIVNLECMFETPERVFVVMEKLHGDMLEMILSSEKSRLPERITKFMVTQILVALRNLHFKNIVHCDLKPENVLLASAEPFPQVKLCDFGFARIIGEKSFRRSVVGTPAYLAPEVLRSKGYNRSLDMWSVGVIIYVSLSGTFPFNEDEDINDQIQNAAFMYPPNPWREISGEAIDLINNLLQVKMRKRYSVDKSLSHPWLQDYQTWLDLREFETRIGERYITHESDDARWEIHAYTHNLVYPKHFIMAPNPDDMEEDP
RAC-alpha serine/threonine-protein kinase (Homo sapiens), sequence (P31749 whole entry): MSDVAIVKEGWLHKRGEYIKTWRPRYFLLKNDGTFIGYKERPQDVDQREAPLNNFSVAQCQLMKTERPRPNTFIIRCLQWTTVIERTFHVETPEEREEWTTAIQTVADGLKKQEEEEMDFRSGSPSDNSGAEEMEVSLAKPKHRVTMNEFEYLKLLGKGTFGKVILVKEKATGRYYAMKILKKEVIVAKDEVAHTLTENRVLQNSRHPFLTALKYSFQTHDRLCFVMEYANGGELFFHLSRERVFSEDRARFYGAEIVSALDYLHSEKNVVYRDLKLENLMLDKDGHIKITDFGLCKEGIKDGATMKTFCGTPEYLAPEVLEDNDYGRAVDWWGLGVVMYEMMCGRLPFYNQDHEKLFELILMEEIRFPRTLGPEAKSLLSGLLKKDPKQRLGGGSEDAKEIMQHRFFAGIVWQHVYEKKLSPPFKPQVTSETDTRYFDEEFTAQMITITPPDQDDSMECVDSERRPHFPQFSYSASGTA
Cyclin-dependent kinase 5 (Homo sapiens), sequence (Q00535 whole entry, looked up): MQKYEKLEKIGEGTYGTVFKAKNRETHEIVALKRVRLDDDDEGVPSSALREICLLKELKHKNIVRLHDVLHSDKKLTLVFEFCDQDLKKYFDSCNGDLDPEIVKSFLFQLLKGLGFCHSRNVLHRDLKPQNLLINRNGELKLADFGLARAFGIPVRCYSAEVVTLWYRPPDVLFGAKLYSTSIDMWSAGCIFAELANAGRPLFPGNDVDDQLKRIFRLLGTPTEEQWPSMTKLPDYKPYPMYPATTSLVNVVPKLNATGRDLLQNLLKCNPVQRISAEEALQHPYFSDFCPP
Serine/threonine-protein kinase ULK3 (Homo sapiens), sequence (Q6PHR2 whole entry): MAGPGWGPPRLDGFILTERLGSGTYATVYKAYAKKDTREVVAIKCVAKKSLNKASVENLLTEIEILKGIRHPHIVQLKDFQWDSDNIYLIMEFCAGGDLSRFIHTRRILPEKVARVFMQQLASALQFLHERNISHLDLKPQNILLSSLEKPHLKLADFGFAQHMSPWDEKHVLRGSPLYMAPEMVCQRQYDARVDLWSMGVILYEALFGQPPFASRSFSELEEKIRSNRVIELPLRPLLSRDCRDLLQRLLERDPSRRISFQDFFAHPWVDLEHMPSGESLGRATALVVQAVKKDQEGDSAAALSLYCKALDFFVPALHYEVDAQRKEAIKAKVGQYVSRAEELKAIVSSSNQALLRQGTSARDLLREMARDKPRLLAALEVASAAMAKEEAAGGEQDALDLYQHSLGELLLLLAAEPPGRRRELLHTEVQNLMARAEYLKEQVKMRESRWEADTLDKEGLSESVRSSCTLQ

CN(C)CC#Cc1ccc(OCCCc2sc(N3CCc4cccc(C(=O)Nc5nc6ccccc6s5)c4C3)nc2C(=O)O)c(F)c1 [A-1155463]
inactive: residual activity [1] 97% | residual activity [2] 100% | residual activity [3] 86% | residual activity [4] 100% | residual activity [5] 100% | residual activity [6] 92% | residual activity [7] 100% | residual activity [8] 95% | residual activity [9] 85% | residual activity [10] 100% | residual activity [11] 100% | residual activity [12] 100% | residual activity [13] 100% | inhibition [14] 6.5% | residual activity [15] 93% | residual activity [16] 91% | inhibition [17] 3.53% | residual activity [18] 93% | residual activity [19] 87% | residual activity [20] 100% | residual activity [21] 100% | residual activity [22] 95% | residual activity [23] 93% | residual activity [24] 86% | residual activity [25] 100% | residual activity [26] 100% | residual activity [27] 100% | residual activity [28] 100% | residual activity [29] 100% | residual activity [30] 96% | residual activity [31] 95% | residual activity [32] 100% | residual activity [33] 100% | residual activity [34] 100% | residual activity [35] 69% | residual activity [36] 100% | residual activity [37] 91% | residual activity [38] 95% | residual activity [39] 97% | residual activity [40] 100% | residual activity [41] 79%
